# Experimental data from ChEMBL document CHEMBL1131511, “Potent HIV protease inhibitors incorporating high-affinity P2-ligands and (R)-(hydroxyethylamino)sulfonamide isostere” (Bioorg Med Chem Lett, 1998).
# Experiments:
# MT4 = test: Compound was tested for the inhibition of HIV-1 in MT-4 human T-lymphoid cells infected with IIIB isolate; assay type: functional; conditions: read-out: ID50 (the source's name)
# [1] = molecular target: Human immunodeficiency virus type 1 protease (Human immunodeficiency virus 1, UniProt Q72874); test: Inhibitory activity against HIV-1 protease
SMILES,IC50 (MT4) [nM],Ki [1] [nM]
CC(C)CN(C[C@@H](O)[C@H](Cc1ccccc1)NC(=O)O[C@H]1CCOC1)S(=O)(=O)c1ccc(N)cc1,15,1.6
CC(C)CN(C[C@@H](O)[C@H](Cc1ccccc1)NC(=O)O[C@H]1CO[C@H]2OCC[C@H]21)S(=O)(=O)c1ccc(N)cc1,4.5,
Cc1ccc(S(=O)(=O)N(CC(C)C)C[C@@H](O)[C@H](Cc2ccccc2)NC(=O)O[C@H]2CO[C@H]3OCC[C@H]32)cc1,3.5,1.2
COc1ccc(S(=O)(=O)N(CC(C)C)C[C@@H](O)[C@H](Cc2ccccc2)NC(=O)O[C@H]2CCOC2)cc1,12,1.5
COc1ccc(S(=O)(=O)N(CC(C)C)C[C@@H](O)[C@H](Cc2ccccc2)NC(=O)O[C@H]2CCS(=O)(=O)C2)cc1,19,1.2
COc1ccc(S(=O)(=O)N(CC(C)C)C[C@@H](O)[C@H](Cc2ccccc2)NC(=O)O[C@H]2CCSC2)cc1,47,2.5
COc1ccc(S(=O)(=O)N(CC(C)C)C[C@@H](O)[C@H](Cc2ccccc2)NC(=O)O[C@@H]2CCS(=O)(=O)[C@@H]2C(C)C)cc1,18,1.4
CC(C)CN(C[C@@H](O)[C@H](Cc1ccccc1)NC(=O)O[C@@H]1CCS(=O)(=O)[C@@H]1C(C)C)S(=O)(=O)c1ccc(N)cc1,40,1.5
COc1ccc(S(=O)(=O)N(CC(C)C)C[C@@H](O)[C@H](Cc2ccccc2)NC(=O)O[C@@H]2CO[C@@H]3OCCC[C@@H]32)cc1,4.5,2.2
COc1ccc(S(=O)(=O)N(CC(C)C)C[C@@H](O)[C@H](Cc2ccccc2)NC(=O)O[C@H]2CO[C@H]3OCC[C@H]32)cc1,1.4,1.1
